Among the data in patent publication US20260184663A1, “INDENE COMPOUNDS, PHARMACEUTICAL COMPOSITIONS THEREOF, AND THEIR THERAPEUTIC APPLICATIONS” (NucMito Pharmaceuticals co. Ltd., priority 2022, published 2026) are inhibition values, retold here.

The subject of the first test is alpha-smooth muscle actin (α-SMA). Nature of the test: Inhibition of TGF-β induced expression of alpha-smooth muscle actin (α-SMA) in CFSC cells (western blot). Format: cell-based. The following applies: compound at 10 μM, TGF-β (10 ng/mL), 24 hours, band intensity vs TGF-β only. An outline of the steps: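 CFSC hepatic stellate cells in serum-free DMEM treated 24 h at 37 °C with compound at 10 μM plus TGF-β (10 ng/mL). α-SMA measured by Western blot with β-actin, ECL detection, densitometry. Percent inhibition is decrease in band intensity versus TGF-β-only cells.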
Consider `CC1=C(CC(=O)O)c2cc(F)cc(F)c2/C1=C\c1cccc(COc2ccccc2)c1` [B7, (Z)-2-(5,7-Difluoro-2-methyl-1-(3-(phenoxymethyl)benzylidene)-1H-inden-3-yl)-acetic acid], for which the inhibition at 10 µM was over 80%.

`COc1ccc2c(c1)/C(=C\c1cccc(COc3ccccc3)c1)C(C)=C2CC(=O)O` [B8, (Z)-2-(6-Methoxy-2-methyl-1-(3-(phenoxymethyl)benzylidene)-1H-inden-3-yl)-acetic acid] returned an inhibition at 10 µM of over 80%.

In a further test the test system is MDA-MB-231 (breast cancer). Nature of the test: Antiproliferative activity (CCK-8 cell viability), MDA-MB-231. Format: cell-based. The following applies: Homo sapiens, Compound concentration: 3.3 μM, 72 h, read-out: Antiproliferative activity in cancerous cells, MDA-MB-231 (inhibition of cell growth). In outline: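 Growth inhibition of human MDA-MB-231 breast cancer cells was assessed with a Cell Counting Kit-8. Cells cultured in DMEM plus 10% FBS were seeded at 2,000-5,000 cells/well, treated after attachment, and kept 72 h at 37° C. CCK-8 solution (10 μL) was added for 4 h, and absorbance at 450 nm was compared with DMSO-treated controls.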
As for `CC1=C(CC(=O)O)c2cc(F)cc(F)c2/C1=C\c1cccc(COc2ccccc2)c1` [B7, (Z)-2-(5,7-Difluoro-2-methyl-1-(3-(phenoxymethyl)benzylidene)-1H-inden-3-yl)-acetic acid], the inhibition at 3.3 µM is at least 50%.

Take `COc1ccc2c(c1)/C(=C\c1cccc(COc3ccccc3)c1)C(C)=C2CC(=O)O` [B8, (Z)-2-(6-Methoxy-2-methyl-1-(3-(phenoxymethyl)benzylidene)-1H-inden-3-yl)-acetic acid]: the inhibition at 3.3 µM was under 30%.

Staying with this test, now noted: Homo sapiens, Compound concentration: 10 μM, 72 h, read-out: Antiproliferative activity in cancerous cells, MDA-MB-231 (inhibition of cell growth).
With `CC1=C(CC(=O)O)c2cc(F)cc(F)c2/C1=C\c1cccc(COc2ccccc2)c1` [B7, (Z)-2-(5,7-Difluoro-2-methyl-1-(3-(phenoxymethyl)benzylidene)-1H-inden-3-yl)-acetic acid], the inhibition at 10 µM is at least 50%.

`COc1ccc2c(c1)/C(=C\c1cccc(COc3ccccc3)c1)C(C)=C2CC(=O)O` [B8, (Z)-2-(6-Methoxy-2-methyl-1-(3-(phenoxymethyl)benzylidene)-1H-inden-3-yl)-acetic acid]: the inhibition at 10 µM lay in the range of 30 to 50%.

For a further test, the system named is HepG2 (liver cancer). Nature of the test: Antiproliferative activity (CCK-8 cell viability), HepG2. The format is cell-based. The following applies: Homo sapiens, Compound concentration: 3.3 μM, 72 h, read-out: Antiproliferative activity in cancerous cells, HepG2 (inhibition of cell growth). In outline:
(§1)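 Growth inhibition graded in bands from percent viability against DMSO vehicle, read as CCK-8 absorbance at 450 nm. Compound tested at 3.3, 10 or 30 μM for 72 h, 37 °C; media contained 10% FBS: DMEM for HepG2/SW480, MEM for HeLa, F-12K for A549.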
Regarding `CC1=C(CC(=O)O)c2cc(F)cc(F)c2/C1=C\c1cccc(COc2ccccc2)c1` [B7, (Z)-2-(5,7-Difluoro-2-methyl-1-(3-(phenoxymethyl)benzylidene)-1H-inden-3-yl)-acetic acid], the inhibition at 3.3 µM lay within 30 to 50%.

Take `COc1ccc2c(c1)/C(=C\c1cccc(COc3ccccc3)c1)C(C)=C2CC(=O)O` [B8, (Z)-2-(6-Methoxy-2-methyl-1-(3-(phenoxymethyl)benzylidene)-1H-inden-3-yl)-acetic acid]: the inhibition at 3.3 µM fell in the range of 30 to 50%.

The test is the same for the next values; noted with them: Homo sapiens, Compound concentration: 10 μM, 72 h, read-out: Antiproliferative activity in cancerous cells, HepG2 (inhibition of cell growth).
For `CC1=C(CC(=O)O)c2cc(F)cc(F)c2/C1=C\c1cccc(COc2ccccc2)c1` [B7, (Z)-2-(5,7-Difluoro-2-methyl-1-(3-(phenoxymethyl)benzylidene)-1H-inden-3-yl)-acetic acid], the inhibition at 10 µM was in the range of 30 to 50%.

For the molecule `COc1ccc2c(c1)/C(=C\c1cccc(COc3ccccc3)c1)C(C)=C2CC(=O)O` [B8, (Z)-2-(6-Methoxy-2-methyl-1-(3-(phenoxymethyl)benzylidene)-1H-inden-3-yl)-acetic acid], the inhibition at 10 µM lay within 30 to 50%.

A further test relates to SW480 (colon cancer). Nature of the test: Antiproliferative activity (CCK-8 cell viability), SW480. Format: cell-based. To be noted: Homo sapiens, Compound concentration: 3.3 μM, 72 h, read-out: Antiproliferative activity in cancerous cells, SW480 (inhibition of cell growth). An outline of the steps:
as §1
Take `CC1=C(CC(=O)O)c2cc(F)cc(F)c2/C1=C\c1cccc(COc2ccccc2)c1` [B7, (Z)-2-(5,7-Difluoro-2-methyl-1-(3-(phenoxymethyl)benzylidene)-1H-inden-3-yl)-acetic acid]: the inhibition at 3.3 µM is at least 50%.

`COc1ccc2c(c1)/C(=C\c1cccc(COc3ccccc3)c1)C(C)=C2CC(=O)O` [B8, (Z)-2-(6-Methoxy-2-methyl-1-(3-(phenoxymethyl)benzylidene)-1H-inden-3-yl)-acetic acid]: the inhibition at 3.3 µM is at least 50%.

Staying with this test, now noted: Homo sapiens, Compound concentration: 10 μM, 72 h, read-out: Antiproliferative activity in cancerous cells, SW480 (inhibition of cell growth).
Regarding `CC1=C(CC(=O)O)c2cc(F)cc(F)c2/C1=C\c1cccc(COc2ccccc2)c1` [B7, (Z)-2-(5,7-Difluoro-2-methyl-1-(3-(phenoxymethyl)benzylidene)-1H-inden-3-yl)-acetic acid], the inhibition at 10 µM was at least 50%.

As for `COc1ccc2c(c1)/C(=C\c1cccc(COc3ccccc3)c1)C(C)=C2CC(=O)O` [B8, (Z)-2-(6-Methoxy-2-methyl-1-(3-(phenoxymethyl)benzylidene)-1H-inden-3-yl)-acetic acid], the inhibition at 10 µM is at least 50%.

The next test concerns B16F10 (malignant melanoma). As to the kind of experiment: Antiproliferative activity (CCK-8 cell viability), B16F10. The format is cell-based. The following applies: Mus musculus, B16-F10, Compound concentration: 3.3 μM, 72 h, read-out: Antiproliferative activity in cancerous cells, B16F10 (inhibition of cell growth). In outline: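 Cell growth inhibition was measured in B16F10 malignant melanoma cells with a Cell Counting Kit-8 viability assay. Cells were maintained in DMEM plus 10% fetal bovine serum, seeded at 2,000-5,000 cells/well in 96-well plates, and treated for 72 h at 37° C. Viability was expressed relative to DMSO-treated vehicle control wells.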
For `CC1=C(CC(=O)O)c2cc(F)cc(F)c2/C1=C\c1cccc(COc2ccccc2)c1` [B7, (Z)-2-(5,7-Difluoro-2-methyl-1-(3-(phenoxymethyl)benzylidene)-1H-inden-3-yl)-acetic acid], the inhibition at 3.3 µM is under 30%.

For the molecule `COc1ccc2c(c1)/C(=C\c1cccc(COc3ccccc3)c1)C(C)=C2CC(=O)O` [B8, (Z)-2-(6-Methoxy-2-methyl-1-(3-(phenoxymethyl)benzylidene)-1H-inden-3-yl)-acetic acid], the inhibition at 3.3 µM is under 30%.

The test is the same for the next values; noted with them: Mus musculus, B16-F10, Compound concentration: 10 μM, 72 h, read-out: Antiproliferative activity in cancerous cells, B16F10 (inhibition of cell growth).
With `CC1=C(CC(=O)O)c2cc(F)cc(F)c2/C1=C\c1cccc(COc2ccccc2)c1` [B7, (Z)-2-(5,7-Difluoro-2-methyl-1-(3-(phenoxymethyl)benzylidene)-1H-inden-3-yl)-acetic acid], the inhibition at 10 µM lay in the range of 30 to 50%.

For `COc1ccc2c(c1)/C(=C\c1cccc(COc3ccccc3)c1)C(C)=C2CC(=O)O` [B8, (Z)-2-(6-Methoxy-2-methyl-1-(3-(phenoxymethyl)benzylidene)-1H-inden-3-yl)-acetic acid], the inhibition at 10 µM was at least 50%.

The subject of another test is A431 (epidermoid carcinoma). As to the kind of experiment: Antiproliferative activity (CCK-8 cell viability), A431. The following applies: Homo sapiens, A-431, Compound concentration: 3.3 μM, 72 h, read-out: Antiproliferative activity in cancerous cells, A431 (inhibition of cell growth). Format: cell-based. In outline:
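This growth inhibition assay used A431 cells maintained in Dulbecco's modified Eagle's medium plus 10% fetal bovine serum. Cells were seeded in 96-well plates, treated with compound for 72 h at 37° C., and then given 10 μL CCK-8 solution. After a further 4 h, absorbance was read at 450 nm.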
Regarding `CC1=C(CC(=O)O)c2cc(F)cc(F)c2/C1=C\c1cccc(COc2ccccc2)c1` [B7, (Z)-2-(5,7-Difluoro-2-methyl-1-(3-(phenoxymethyl)benzylidene)-1H-inden-3-yl)-acetic acid], the inhibition at 3.3 µM was 30 to 50%.

Turning to `COc1ccc2c(c1)/C(=C\c1cccc(COc3ccccc3)c1)C(C)=C2CC(=O)O` [B8, (Z)-2-(6-Methoxy-2-methyl-1-(3-(phenoxymethyl)benzylidene)-1H-inden-3-yl)-acetic acid], the inhibition at 3.3 µM fell in the range of 30 to 50%.

The same test, now with this note: Homo sapiens, A-431, Compound concentration: 10 μM, 72 h, read-out: Antiproliferative activity in cancerous cells, A431 (inhibition of cell growth).
For `CC1=C(CC(=O)O)c2cc(F)cc(F)c2/C1=C\c1cccc(COc2ccccc2)c1` [B7, (Z)-2-(5,7-Difluoro-2-methyl-1-(3-(phenoxymethyl)benzylidene)-1H-inden-3-yl)-acetic acid], the inhibition at 10 µM is at least 50%.

Turning to `COc1ccc2c(c1)/C(=C\c1cccc(COc3ccccc3)c1)C(C)=C2CC(=O)O` [B8, (Z)-2-(6-Methoxy-2-methyl-1-(3-(phenoxymethyl)benzylidene)-1H-inden-3-yl)-acetic acid], the inhibition at 10 µM is at least 50%.

The next test relates to A549 (lung adenocarcinoma). As to the kind of experiment: Antiproliferative activity (CCK-8 cell viability), A549. The format is cell-based. The following applies: Homo sapiens, Compound concentration: 3.3 μM, 72 h, read-out: Antiproliferative activity in cancerous cells, A549 (inhibition of cell growth). In outline: as §1
Regarding `CC1=C(CC(=O)O)c2cc(F)cc(F)c2/C1=C\c1cccc(COc2ccccc2)c1` [B7, (Z)-2-(5,7-Difluoro-2-methyl-1-(3-(phenoxymethyl)benzylidene)-1H-inden-3-yl)-acetic acid], the inhibition at 3.3 µM is under 30%.

`COc1ccc2c(c1)/C(=C\c1cccc(COc3ccccc3)c1)C(C)=C2CC(=O)O` [B8, (Z)-2-(6-Methoxy-2-methyl-1-(3-(phenoxymethyl)benzylidene)-1H-inden-3-yl)-acetic acid]: the inhibition at 3.3 µM is at least 50%.

Still in this test, the particulars now being: Homo sapiens, Compound concentration: 10 μM, 72 h, read-out: Antiproliferative activity in cancerous cells, A549 (inhibition of cell growth).
For `CC1=C(CC(=O)O)c2cc(F)cc(F)c2/C1=C\c1cccc(COc2ccccc2)c1` [B7, (Z)-2-(5,7-Difluoro-2-methyl-1-(3-(phenoxymethyl)benzylidene)-1H-inden-3-yl)-acetic acid], the inhibition at 10 µM was 30 to 50%.

Regarding `COc1ccc2c(c1)/C(=C\c1cccc(COc3ccccc3)c1)C(C)=C2CC(=O)O` [B8, (Z)-2-(6-Methoxy-2-methyl-1-(3-(phenoxymethyl)benzylidene)-1H-inden-3-yl)-acetic acid], the inhibition at 10 µM is at least 50%.

In another test the test system is HeLa (cervical cancer). As to the kind of experiment: Antiproliferative activity (CCK-8 cell viability), HeLa. The following applies: Homo sapiens, Compound concentration: 3.3 μM, 72 h, read-out: Antiproliferative activity in cancerous cells, HELA (inhibition of cell growth). The format is cell-based. An outline of the steps: as §1
Turning to `CC1=C(CC(=O)O)c2cc(F)cc(F)c2/C1=C\c1cccc(COc2ccccc2)c1` [B7, (Z)-2-(5,7-Difluoro-2-methyl-1-(3-(phenoxymethyl)benzylidene)-1H-inden-3-yl)-acetic acid], the inhibition at 3.3 µM was at least 50%.

Regarding `COc1ccc2c(c1)/C(=C\c1cccc(COc3ccccc3)c1)C(C)=C2CC(=O)O` [B8, (Z)-2-(6-Methoxy-2-methyl-1-(3-(phenoxymethyl)benzylidene)-1H-inden-3-yl)-acetic acid], the inhibition at 3.3 µM lay within 30 to 50%.

Still in this test, the particulars now being: Homo sapiens, Compound concentration: 10 μM, 72 h, read-out: Antiproliferative activity in cancerous cells, HELA (inhibition of cell growth).
`CC1=C(CC(=O)O)c2cc(F)cc(F)c2/C1=C\c1cccc(COc2ccccc2)c1` [B7, (Z)-2-(5,7-Difluoro-2-methyl-1-(3-(phenoxymethyl)benzylidene)-1H-inden-3-yl)-acetic acid]: the inhibition at 10 µM was in the range of 30 to 50%.

On to `COc1ccc2c(c1)/C(=C\c1cccc(COc3ccccc3)c1)C(C)=C2CC(=O)O` [B8, (Z)-2-(6-Methoxy-2-methyl-1-(3-(phenoxymethyl)benzylidene)-1H-inden-3-yl)-acetic acid], for which the inhibition at 10 µM was at least 50%.
